Laboratory results reported in the supplement of paper PMC10307832.

Legend:
Assay in all cases: relative viability (nuclei count vs DMSO), 5 days (fraction); higher = more cells survive
Lapatinib + Pemetrexed = compound: CS(=O)(=O)CCNCc1ccc(-c2ccc3ncnc(Nc4ccc(OCc5cccc(F)c5)c(Cl)c4)c3c2)o1 [Lapatinib] + Nc1nc2[nH]cc(CCc3ccc(C(=O)N[C@@H](CCC(=O)O)C(=O)O)cc3)c2c(=O)[nH]1 [Pemetrexed] (partner 0.2 µM)
Summary of the method: (§1)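 Dosing by pin tool came one day after lung cancer cell lines were seeded in 1536-well plates, using either one drug or a fixed anchor-drug dose plus five library-drug doses (not always all listed) in √10 steps. After 5 days, nuclei were counted on 4× images. Relative viability is treated-well nuclei count divided by vehicle-well nuclei count, and values are medians of duplicate plates.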

Lapatinib + Linsitinib = compound: CS(=O)(=O)CCNCc1ccc(-c2ccc3ncnc(Nc4ccc(OCc5cccc(F)c5)c(Cl)c4)c3c2)o1 [Lapatinib] + C[C@]1(O)C[C@@H](c2nc(-c3ccc4ccc(-c5ccccc5)nc4c3)c3c(N)nccn32)C1 [Linsitinib] (partner 1 µM)
Summary of the method: as §1

Wnt-C59 + Foretinib = compound: CC1=NC=CC(=C1)C2=CC=C(C=C2)CC(=O)NC3=CC=C(C=C3)C4=CN=CC=C4 [Wnt-C59] + COc1cc2c(Oc3ccc(NC(=O)C4(C(=O)Nc5ccc(F)cc5)CC4)cc3F)ccnc2cc1OCCCN1CCOCC1 [Foretinib] (partner 0.25 µM)
Summary of the method: as §1

Wnt-C59 + Palbociclib = compound: CC1=NC=CC(=C1)C2=CC=C(C=C2)CC(=O)NC3=CC=C(C=C3)C4=CN=CC=C4 [Wnt-C59] + CC(=O)c1c(C)c2cnc(Nc3ccc(N4CCNCC4)cn3)nc2n(C2CCCC2)c1=O [Palbociclib] (partner 0.5 µM)
Summary of the method: as §1

Cell Line | relative viability (Lapatinib + Pemetrexed; first compound 0.02 µM) | relative viability (Lapatinib + Pemetrexed; first compound 0.06325 µM) | relative viability (Lapatinib + Pemetrexed; first compound 0.2 µM) | relative viability (Lapatinib + Pemetrexed; first compound 0.6325 µM) | relative viability (Lapatinib + Pemetrexed; first compound 2 µM) | relative viability (Lapatinib + Linsitinib; first compound 0.02 µM) | relative viability (Lapatinib + Linsitinib; first compound 0.06325 µM) | relative viability (Lapatinib + Linsitinib; first compound 0.2 µM) | relative viability (Lapatinib + Linsitinib; first compound 0.6325 µM) | relative viability (Lapatinib + Linsitinib; first compound 2 µM) | relative viability (Wnt-C59 + Foretinib; first compound 0.001 µM) | relative viability (Wnt-C59 + Foretinib; first compound 0.01 µM) | relative viability (Wnt-C59 + Foretinib; first compound 0.03162 µM) | relative viability (Wnt-C59 + Foretinib; first compound 0.1 µM) | relative viability (Wnt-C59 + Palbociclib; first compound 0.001 µM) | relative viability (Wnt-C59 + Palbociclib; first compound 0.01 µM) | relative viability (Wnt-C59 + Palbociclib; first compound 0.03162 µM) | relative viability (Wnt-C59 + Palbociclib; first compound 0.1 µM)
NCI-H322M | 0.648 | 0.54 | 0.571 | 0.575 | 0.49 | 0.931 | 0.839 | 0.803 | 0.767 | 0.592 | 0.879 | 0.802 | 0.896 | 0.68 | 0.465 | 0.495 | 0.427 | 0.447
NCI-H358 | 0.173 | 0.157 | 0.16 | 0.167 | 0.189 | 0.548 | – | 0.512 | 0.329 | 0.277 | 0.759 | 0.648 | 1.04 | 0.678 | 0.134 | 0.128 | 0.153 | 0.1
NCI-H441 | 0.305 | – | 0.248 | 0.231 | 0.248 | 0.377 | 0.659 | 0.494 | 0.457 | 0.593 | 0.977 | 1.05 | 1.01 | 1.04 | 0.265 | 0.206 | 0.247 | 0.237
NCI-H460 | 0.0637 | 0.0621 | 0.0581 | 0.0692 | 0.0618 | 0.736 | 0.776 | 0.843 | 0.573 | 0.674 | 1.03 | 0.966 | 1.02 | 0.94 | 0.185 | 0.145 | 0.207 | 0.147
NCI-H520 | 0.741 | 0.636 | 0.604 | 0.712 | 0.489 | 0.9 | 0.799 | 1.04 | 0.992 | 1.16 | 0.792 | 0.696 | 0.867 | 0.689 | 0.244 | 0.208 | 0.239 | 0.222
NCI-H647 | 0.176 | 0.149 | 0.162 | 0.168 | 0.158 | 1.21 | 1.17 | 1.37 | 1.1 | 0.995 | 1.24 | 0.978 | 1.36 | 1.18 | 0.346 | 0.326 | 0.388 | 0.316
NCI-H650 | – | 0.881 | 0.913 | 1.08 | 0.963 | – | 0.841 | 0.793 | 0.567 | 0.875 | 0.956 | 1.07 | 1.07 | 0.947 | 0.276 | 0.344 | 0.302 | 0.323
NCI-H661 | 0.872 | 0.773 | 0.834 | 0.736 | 0.756 | 0.616 | 0.485 | 0.436 | 0.454 | 0.266 | 1 | 0.981 | 1.06 | 0.976 | 0.409 | 0.357 | 0.436 | 0.387
NCI-H838 | 0.275 | 0.244 | 0.258 | 0.311 | 0.251 | 1.08 | 0.913 | 1.03 | 1.04 | 0.874 | 1.04 | 0.961 | 1.08 | 1.03 | 0.238 | 0.22 | 0.238 | 0.221
NCI-H1355 | 0.833 | 0.93 | 0.948 | 1.06 | 0.889 | – | 0.745 | 0.782 | 0.792 | 0.526 | 0.949 | 0.922 | 1.01 | 0.876 | 0.408 | 0.375 | 0.408 | 0.375
NCI-H1395 | – | 0.938 | 0.87 | 0.887 | 0.793 | – | 1.01 | 1.03 | 1.03 | 1.01 | 0.99 | 1.01 | 0.984 | 1 | 0.598 | 0.652 | 0.566 | 0.573
NCI-H1437 | 0.303 | 0.302 | 0.279 | 0.289 | 0.329 | 0.898 | 0.968 | 1.05 | 0.864 | 0.875 | 1.31 | 1.28 | 1.29 | 1.26 | 0.31 | 0.309 | 0.336 | 0.335
NCI-H1651 | 0.48 | 0.553 | 0.553 | 0.6 | 0.657 | 0.946 | 0.884 | 0.922 | 0.846 | 0.9 | 0.985 | 0.734 | 0.858 | 0.758 | 0.526 | 0.499 | 0.452 | 0.479
NCI-H1666 | 0.858 | 0.789 | 0.851 | 0.841 | 0.67 | 0.822 | 0.681 | 0.704 | 0.611 | 0.248 | 0.894 | 0.994 | 0.92 | 0.985 | 0.658 | 0.654 | 0.616 | 0.647
NCI-H1734 | – | 0.422 | 0.411 | 0.425 | 0.383 | – | 0.729 | 0.946 | 0.858 | 0.745 | 0.808 | 0.839 | 0.922 | 0.962 | 0.382 | 0.334 | 0.36 | 0.364
NCI-H1755 | 0.423 | 0.405 | 0.49 | 0.451 | 0.439 | 0.983 | 0.963 | 0.982 | 0.95 | 0.714 | 0.884 | 0.895 | 0.55 | 0.866 | 0.454 | 0.447 | 0.438 | 0.416
NCI-H1793 | – | 0.602 | 0.889 | 0.658 | 0.535 | – | – | – | 0.605 | 0.515 | 0.69 | – | 0.678 | 0.614 | 0.296 | 0.259 | 0.355 | 0.321
NCI-H1915 | – | 0.457 | 0.456 | 0.465 | 0.473 | – | 1.09 | 1.08 | 1.02 | 1.1 | 1.12 | 1.03 | 1.16 | 1.09 | 0.516 | 0.521 | 0.473 | 0.572
